According to US20100143265A1, “SYSTEM AND METHOD FOR THE DELIVERY OF A SANITIZING FOAM” (GREEN SOURCE AUTOMATED, LLC, priority 2008, published 2010):

Test: Gas solubility in water / dip solution
Assay type: physicochemical
Settings: standard room temperature and 100 psi pressure
Experimental: Carbon dioxide (CO2) is soluble in water up to 1.45 g/L at 25° C. and 100 kPa. The amount of CO2 that can be dissolved into the dip solution is dependent on the temperature and pressure of the solution. The lower the temperature of the solution the less pressure that is required to saturate the solution with CO2. Conversely, the higher the temperature of the dip solution the more pressure that is required to saturate the solution with CO2.
The system (FIG. 3) was used with nitrous oxide as the propellant/diffusion gas. In an embodiment of the invention, nitrous oxide (N2O) can be used as a propellant/diffusion. N2O is partially soluble in water, but is almost completely soluble in fats and oils (the skin conditioner provided in the cow dip). Under standard room temperature and 100 psi pressure, approximately four volumes of N2O can be dissolved in one volume of the dip solution. The resulting nitrous oxide foam expands to approximately 6 mm in diameter, where the individual bubbles in the foam vary in size from approximately 1 micron to approximately 10 microns. After coalescing, the remaining liquid dries on the teat. It is noted that the amount of N2O that can be dissolved in one volume of dip solution will increase if more conditioners (containing one or more of fats, oils, fatty acids and triglycerides) are used since N2O is almost completely soluble in fats and oils. […]

| volumes dissolved (gas and dip solution) | SMILES |
| --- | --- |
| approximately 4.5 volumes | O=C=O [CO2, Carbon dioxide] |
| approximately four | [N-]=[N+]=O [Example N2O, nitrous oxide] |
